This is an account of results in EP0201732A2, “Beta-2-mimetics of the 4-aminophenylethanolamine type for the prevention of peptic ulcers” (BOEHRINGER INGELHEIM VETMEDICA GMBH, priority 1985, dated 1986).

Data set [1] concerns peptische Labmagenulcera. The note with it: dose not given.
For a further data set, the system named is Magensäuresekretion. The settings on record: rat; doses higher by a factor of 100 than needed for the broncholytic effect; Arzneimittelforschung 26, 1404-1420 (1976); cited from earlier work.
The nature of data set [2]: Feed consumption and final weight of the treated calves against the control group. In kind it is in vivo, Kälber. The text has this:
(§1) Beispielsweise wurde die Verbindung 1-(4-Amino-3,5,-dichforphenyl)-2-tertbutyfamina-äthanol- hydrochlorid in einer Tagesdosis von 2 mcg/kg Körpergewicht, verteilt auf 2 Dosen, welche dem Futter beigemischt war, 32 bei Beginn der Behandlung ca. 70 Tage alten und ca. 100 kg schweren Kälbern im Vergleich zu einer gleichgroßen Kontrollgruppe fortgesetzt verabreicht.
(§2) 14 Tage vor dem Schlachttermin wurde die Behandlung beendet.
Außerdem wies bei einem Futterverbrauch der Versuchsgruppe von 344,3 kg pro Tier bzw. von 343,7 kg pro Tier der Kontrollgruppe die erstere eine um ca. 10 kg höhere Endgewicht pro Tier auf. Bei einem annähernd gleichen Futterverbrauch pro Tier bedeutet dies eine Steigerung der Fleischproduktion von ca. 320 kg in der Versuchsgruppe.

Data set [3] relates to peptische Labmagenulcera. Put plainly: Prevention of peptic abomasal ulcers in fattening calves, compound given as feed additive; abomasa dissected after slaughter. The note with it: 2 mcg/kg body weight per day in 2 doses mixed into feed; 32 calves, ca. 70 days old and ca. 100 kg at start; treatment ended 14 days before slaughter; control group showed ulcers and haemorrhagic erosions. It counts as in vivo, Kälber.
Excerpt: as §1, §2
Nach der Schlachtung zeigten sich bei der Sektion der Labmägen der Kontrollgruppe Läsionen der Labmagenschleimhaut in folgenden verschiedenen Stadien: • 3 Tiere hatten je ein Ulcus bis zu einem Durchmesser von 20 mm • 4 Tiere hatten mehrere Ulcera mit einem Durchmesser von 2 bis 15 mm
Weitere Tiere wiesen hämorrhagische Erosionen auf den Magenschleimhautfalten auf.

A short description of data set [4]: Tolerability in the treated calves: side effects, haematology and serum enzymes (random samples). It counts as in vivo, Kälber.
Excerpt: as §1
(§3) Die verabreichte Substanz ist gut verträglich.

Data set [5] is described as follows: Acute oral toxicity (LD50). The settings on record: mouse, in vivo, Maus, p.o.
Excerpt: as §3

Where a name gives a salt, the structure may show the parent alone.

Regarding `CN/C(=N/CCSCc1nc[nH]c1C)NC#N` [Cimetidine], the Behandlungsversuch result with peptische Labmagenulcera [1] is reported as “erfolglos”.
Consider `CC(C)(C)NCC(O)c1cc(Cl)c(N)c(Cl)c1` (centres unmarked) [1-(4-Amino-3,5-dichlor-phenyl)-2-tert.butylamino-äthanol], for which the “Hemmwirkung auf die Magensäuresekretion” value with Magensäuresekretion is on record as “eine Hemmwirkung auf die Magensäuresekretion”.
`CC(C)(C)NCC(O)c1cc(Cl)c(N)c(Cl)c1` (centres unmarked) [1-(4-Amino-3,5-dichlor-phenyl)-2-tert.butylamino-äthanol-hydrochlorid]: the “höhere Endgewicht pro Tier” value in data set [2] (test group versus control group, 2 mcg/kg per day in feed) is listed as “ca. 10 kg”. Moreover, in data set [2] (whole test group (32 calves) at nearly equal feed consumption per animal), the “Steigerung der Fleischproduktion” value is recorded as “ca. 320 kg”. Also, the “Läsionen der Labmagenschleimhaut” value in the data set with peptische Labmagenulcera [3] is “bei keinem Tier der Versuchsgruppe irgendwelche Läsionen der Labmagenschleimhaut feststellbar”. In addition, the Nebenwirkungen entry in data set [4] (calves, 2 mcg/kg per day in feed) was “keinerlei Nebenwrikungen”. Besides, the “hämatologische Untersuchung und Enzyme SGOT, CPK, LDH und GLDH” value in data set [4] (random samples, test group versus control group) is “keine signifikanten Unterschiede”. In addition, the median lethal dose (LD50) (commonly the dose expected to kill half of the subjects tested) in data set [5] is 176 mg/kg.
